From ChEMBL document CHEMBL1158760, “Chromenes from the brown alga Sargassum siliquastrum” (J Nat Prod, 2005)

Target: Cholinesterase (Homo sapiens) (UniProt P06276)
Assay: Inhibition of butylcholine esterase at 100 ug/mL

Sequence of Cholinesterase (Homo sapiens) (P06276 whole entry): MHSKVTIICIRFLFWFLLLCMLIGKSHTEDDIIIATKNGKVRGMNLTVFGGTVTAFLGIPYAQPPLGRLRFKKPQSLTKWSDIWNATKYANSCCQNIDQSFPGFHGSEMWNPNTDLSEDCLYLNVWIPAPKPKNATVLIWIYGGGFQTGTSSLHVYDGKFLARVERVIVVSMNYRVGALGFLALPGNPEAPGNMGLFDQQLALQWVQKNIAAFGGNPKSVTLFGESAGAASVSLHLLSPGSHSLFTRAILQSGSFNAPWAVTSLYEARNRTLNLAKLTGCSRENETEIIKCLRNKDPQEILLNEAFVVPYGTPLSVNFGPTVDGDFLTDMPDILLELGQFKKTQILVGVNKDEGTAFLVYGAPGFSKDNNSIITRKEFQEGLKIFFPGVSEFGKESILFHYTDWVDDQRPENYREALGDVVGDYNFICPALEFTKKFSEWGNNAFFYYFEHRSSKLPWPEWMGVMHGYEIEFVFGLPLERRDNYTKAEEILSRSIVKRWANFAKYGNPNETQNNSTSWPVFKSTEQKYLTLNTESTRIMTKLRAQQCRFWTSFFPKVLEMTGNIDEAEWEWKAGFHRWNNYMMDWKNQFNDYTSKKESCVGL

| Compound | inhibition [%] |
| --- | --- |
| CC(C)=CC(C(=O)O)/C(C)=C/CC/C(C)=C/CC[C@]1(C)CCc2cc(O)cc(C)c2O1 (some centres not stated) | 80 |
| CC(C)=C[C@@H](O)C(=O)/C(C)=C/CC/C(C)=C/CC[C@]1(C)CCc2cc(O)cc(C)c2O1 | 82.7 |
